# In PMC4957090, “A novel allele of L-galactono-1,4-lactone dehydrogenase is associated with enhanced drought tolerance through affecting stomatal aperture in common wheat” (Scientific Reports, 2016):
# Experiments:
# TaGLDH-D1 = biological target: T1, TaGLDH-D1 (Triticum aestivum, UniProt W5FUB4); experiment: cytochrome c reduction, absorbance at […] nm, crude mitochondrial fraction; type: biochemical; details: 4 μM L-GalL, 60 μM cytochrome c, 50 mM Tris-HCl pH 8.0, 0.15% Triton X-100; against PEBV:GUS control
# T1 construct: gene LOC123120310; crude mitochondrial fraction
# T1 sequence (W5FUB4 entry or part of it): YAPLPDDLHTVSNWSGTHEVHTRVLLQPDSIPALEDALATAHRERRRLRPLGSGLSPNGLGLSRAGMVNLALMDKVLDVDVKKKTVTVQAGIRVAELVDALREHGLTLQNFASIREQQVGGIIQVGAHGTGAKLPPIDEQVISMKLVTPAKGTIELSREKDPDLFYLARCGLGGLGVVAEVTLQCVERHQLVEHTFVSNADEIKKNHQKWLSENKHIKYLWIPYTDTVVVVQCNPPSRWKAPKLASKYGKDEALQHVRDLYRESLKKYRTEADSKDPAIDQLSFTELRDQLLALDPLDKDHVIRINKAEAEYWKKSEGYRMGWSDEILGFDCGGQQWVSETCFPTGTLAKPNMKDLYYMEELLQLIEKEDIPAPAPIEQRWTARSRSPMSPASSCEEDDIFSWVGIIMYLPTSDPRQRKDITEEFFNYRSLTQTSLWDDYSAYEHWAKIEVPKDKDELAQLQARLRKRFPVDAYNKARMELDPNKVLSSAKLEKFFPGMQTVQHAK
# TaGLDH-B1 = biological target: T2, TaGLDH-B1 (Triticum aestivum, UniProt W5FJN8); experiment: as above; type: biochemical; details: 4 μM L-GalL, 60 μM cytochrome c, 50 mM Tris-HCl pH 8.0, 0.15% Triton X-100; against PEBV:GUS control
# T2 construct: gene LOC123111215; crude mitochondrial fraction
# T2 sequence (W5FJN8 entry or part of it): as the sequence (W5FUB4 entry or part of it) above, with K133R, R158T, A241T, H256Y, L292I, C395S counted along it
# purified protein = substrate: O=C1O[C@H]([C@@H](O)CO)[C@@H](O)[C@@H]1O; experiment: purified protein; type: biochemical, Triticum aestivum; details: 60 μM cytochrome c, 25 mM Tris-HCl pH 8.0, 25 mM NaCl
molecule,measurement,setting,value
"O=C1O[C@H]([C@@H](O)CO)[C@@H](O)[C@@H]1O [L-galactono-1,4-lactone]",total GLDH activity,TaGLDH-D1,"GLDH activity level was significantly higher in the leaves infected by PEBV:A1, PEBV:B1 or PEBV:D1"
same,total GLDH activity,TaGLDH-B1,"GLDH activity level was significantly higher in the leaves infected by PEBV:A1, PEBV:B1 or PEBV:D1"
"TaGLDH-A1a (wild-type allele of TaGLDH-A1) (Triticum aestivum) (protein, without first 78 residues (putative mitochondrial targeting peptide), N-terminal His tag, pET-30a, E. coli) YAPLPDDLHTVSNWSGTHEVHTRVLLQPDSIPALEDALATAHRERRRLRPLGSGLSPNGLGLSRAGMVNLALMDKVLDVDVKKKTVTVQAGIRVAELVDALSKHGLTLQNFASIREQQVGGIIQVGAHGTGARLPPIDEQVISMKLVTPAKGTIELSREKNPDLFYLARCGLGGLGVVAEVTLQCVERHQLVEHTFVSNADEIKKNHQNWLSENKHIKYLWIPYTDTVVVVQCNPPSRWKTPKLASKYVKDEALQHVRDLYRESLKKYRTEADSKDPAIDQLSFTELRDQLLALDPLDKDHVIRINKAEAEYWKKSEGYRMCWSDEILGFDCGGQQWVSETCFPTGTLAKPNMKDLYYMEELLQLIEEEDIPAPAPIEQRWTAHSRSPMSPASSSEEDDIFSWVGIIMYLPTSDPRQRKDITEEFFNYRSLTQTSLWDDYSAYEHWAKIEVPKDKDELAQLQARLRKRFPVDAYNKARMELDPNKVLSSAKLEKFFPGMQTVQHAR",Km,purified protein,61.0 ± 5.4 µM
"TaGLDH-A1a (wild-type allele of TaGLDH-A1) (Triticum aestivum; DEL501-501) (protein, without first 78 residues (putative mitochondrial targeting peptide), N-terminal His tag, pET-30a, E. coli) YAPLPDDLHTVSNWSGTHEVHTRVLLQPDSIPALEDALATAHRERRRLRPLGSGLSPNGLGLSRAGMVNLALMDKVLDVDVKKKTVTVQAGIRVAELVDALSKHGLTLQNFASIREQQVGGIIQVGAHGTGARLPPIDEQVISMKLVTPAKGTIELSREKNPDLFYLARCGLGGLGVVAEVTLQCVERHQLVEHTFVSNADEIKKNHQNWLSENKHIKYLWIPYTDTVVVVQCNPPSRWKTPKLASKYVKDEALQHVRDLYRESLKKYRTEADSKDPAIDQLSFTELRDQLLALDPLDKDHVIRINKAEAEYWKKSEGYRMCWSDEILGFDCGGQQWVSETCFPTGTLAKPNMKDLYYMEELLQLIEEEDIPAPAPIEQRWTAHSRSPMSPASSSEEDDIFSWVGIIMYLPTSDPRQRKDITEFFNYRSLTQTSLWDDYSAYEHWAKIEVPKDKDELAQLQARLRKRFPVDAYNKARMELDPNKVLSSAKLEKFFPGMQTVQHAR",Km,"purified protein; natural allele TaGLDH-A1b (Glu501 absent), cDNA from cv. Kashibaipi",181.0 ± 67.1 µM
